# Organism: Rattus norvegicus
# Assay: DrugMatrix - Regimen: Daily Repeat
# Assay type: toxicity, organism-based, Sprague-Dawley
# Design: regimen Daily Repeat, gender Male, age 6-8 weeks
# Conditions: in vivo, po, route oral GAVAGE, […]; for ABSOLUTE BASOPHIL / ABSOLUTE EOSINOPHIL / ABSOLUTE LYMPHOCYTE / ABSOLUTE MONOCYTE / ABSOLUTE SEGMENTED NEUTROPHIL / BASOPHIL / EOSINOPHIL / ERYTHROCYTE COUNT / HEMATOCRIT / HEMOGLOBIN / LEUKOCYTE COUNT / LYMPHOCYTE / MEAN CORPUSCULAR HEMOGLOBIN / MEAN CORPUSCULAR HEMOGLOBIN CONCENTRATION / MEAN CORPUSCULAR VOLUME / MONOCYTE / NEUTROPHIL / NUCLEATED RED BLOOD CELLS / PLATELET COUNT: tissue Blood; for ALANINE AMINOTRANSFERASE / ALBUMIN / ALKALINE PHOSPHATASE / ASPARTATE AMINOTRANSFERASE / BLOOD UREA NITROGEN / CARBON DIOXIDE / CHLORIDE / CHOLESTEROL / CREATINE PHOSPHOKINASE / CREATININE / GLUCOSE / LACTATE DEHYDROGENASE / LIPASE / PHOSPHORUS / POTASSIUM / SODIUM / TOTAL BILIRUBIN / TOTAL PROTEIN / URIC ACID: tissue Plasma
# [1] = 3 mg/kg, 120 h, dose level Low, time 5 day
# [2] = 300 mg/kg, 72 h, dose level High, time 3 day
# [3] = 300 mg/kg, 120 h, dose level High, time 5 day
compound,measurement,setting,value
CC#C[C@]1(O)CC[C@H]2[C@@H]3CCC4=CC(=O)CCC4=C3[C@@H](c3ccc(N(C)C)cc3)C[C@@]21C [MIFEPRISTONE],ABSOLUTE BASOPHIL,[1],0 CELLS/uL
same,ABSOLUTE EOSINOPHIL,[1],0 CELLS/uL
same,ABSOLUTE LYMPHOCYTE,[1],7739.67 CELLS/uL
same,ABSOLUTE MONOCYTE,[1],116.67 CELLS/uL
same,ABSOLUTE SEGMENTED NEUTROPHIL,[1],1310.33 CELLS/uL
same,BASOPHIL,[1],0%
same,EOSINOPHIL,[1],0%
same,ERYTHROCYTE COUNT,[1],4.91 x10E6/uL
same,HEMATOCRIT,[1],31.8%
same,HEMOGLOBIN,[1],12.53 G/DL
same,LEUKOCYTE COUNT,[1],9.17 x10E3/uL
same,LYMPHOCYTE,[1],84.33%
same,MEAN CORPUSCULAR HEMOGLOBIN,[1],25.53 pg
same,MEAN CORPUSCULAR HEMOGLOBIN CONCENTRATION,[1],39.43 G/DL
same,MEAN CORPUSCULAR VOLUME,[1],64.83 fL
same,MONOCYTE,[1],1.33%
same,NEUTROPHIL,[1],14.33%
same,NUCLEATED RED BLOOD CELLS,[1],0 /100WBC
same,PLATELET COUNT,[1],1194.67 x10E3/uL
same,ALANINE AMINOTRANSFERASE,[1],61.67 u/L
same,ALBUMIN,[1],4.13 G/DL
same,ALKALINE PHOSPHATASE,[1],340.33 u/L
same,ASPARTATE AMINOTRANSFERASE,[1],84 u/L
same,BLOOD UREA NITROGEN,[1],13.33 mg/dL
same,CARBON DIOXIDE,[1],30.33 mmol/L
same,CHLORIDE,[1],97.67 MEQ/L
same,CHOLESTEROL,[1],64.67 mg/dL
same,CREATINE PHOSPHOKINASE,[1],193.33 u/L
same,CREATININE,[1],0.14 mg/dL
same,GLUCOSE,[1],154.33 mg/dL
same,LACTATE DEHYDROGENASE,[1],87 u/L
same,LIPASE,[1],9.33 u/L
same,PHOSPHORUS,[1],10.8 mg/dL
same,POTASSIUM,[1],5.65 MEQ/L
same,SODIUM,[1],143.37 MEQ/L
same,TOTAL BILIRUBIN,[1],0.13 mg/dL
same,TOTAL PROTEIN,[1],5.9 G/DL
same,URIC ACID,[1],0.73 mg/dL
same,ABSOLUTE BASOPHIL,[2],0 CELLS/uL
same,ABSOLUTE EOSINOPHIL,[2],0 CELLS/uL
same,ABSOLUTE LYMPHOCYTE,[2],6590.67 CELLS/uL
same,ABSOLUTE MONOCYTE,[2],75.33 CELLS/uL
same,ABSOLUTE SEGMENTED NEUTROPHIL,[2],634 CELLS/uL
same,BASOPHIL,[2],0%
same,EOSINOPHIL,[2],0%
same,ERYTHROCYTE COUNT,[2],5.5 x10E6/uL
same,HEMATOCRIT,[2],33.8%
same,HEMOGLOBIN,[2],13.33 G/DL
same,LEUKOCYTE COUNT,[2],7.3 x10E3/uL
same,LYMPHOCYTE,[2],90.67%
same,MEAN CORPUSCULAR HEMOGLOBIN,[2],24.3 pg
same,MEAN CORPUSCULAR HEMOGLOBIN CONCENTRATION,[2],39.47 G/DL
same,MEAN CORPUSCULAR VOLUME,[2],61.57 fL
same,MONOCYTE,[2],1%
same,NEUTROPHIL,[2],8.33%
same,NUCLEATED RED BLOOD CELLS,[2],0 /100WBC
same,PLATELET COUNT,[2],1129.67 x10E3/uL
same,ALANINE AMINOTRANSFERASE,[2],63 u/L
same,ALBUMIN,[2],3.77 G/DL
same,ALKALINE PHOSPHATASE,[2],417.67 u/L
same,ASPARTATE AMINOTRANSFERASE,[2],107.67 u/L
same,BLOOD UREA NITROGEN,[2],14.33 mg/dL
same,CARBON DIOXIDE,[2],28 mmol/L
same,CHLORIDE,[2],102.67 MEQ/L
same,CHOLESTEROL,[2],54.33 mg/dL
same,CREATINE PHOSPHOKINASE,[2],371.67 u/L
same,CREATININE,[2],0.32 mg/dL
same,GLUCOSE,[2],160.67 mg/dL
same,LACTATE DEHYDROGENASE,[2],97.67 u/L
same,LIPASE,[2],11 u/L
same,PHOSPHORUS,[2],9.53 mg/dL
same,POTASSIUM,[2],4.8 MEQ/L
same,SODIUM,[2],144.33 MEQ/L
same,TOTAL BILIRUBIN,[2],0.17 mg/dL
same,TOTAL PROTEIN,[2],5.53 G/DL
same,URIC ACID,[2],0.37 mg/dL
same,ABSOLUTE BASOPHIL,[3],0 CELLS/uL
same,ABSOLUTE EOSINOPHIL,[3],48.67 CELLS/uL
same,ABSOLUTE LYMPHOCYTE,[3],8343 CELLS/uL
same,ABSOLUTE MONOCYTE,[3],151.67 CELLS/uL
same,ABSOLUTE SEGMENTED NEUTROPHIL,[3],790 CELLS/uL
same,BASOPHIL,[3],0%
same,EOSINOPHIL,[3],0.67%
same,ERYTHROCYTE COUNT,[3],5.36 x10E6/uL
same,HEMATOCRIT,[3],32.73%
same,HEMOGLOBIN,[3],12.93 G/DL
same,LEUKOCYTE COUNT,[3],9.33 x10E3/uL
same,LYMPHOCYTE,[3],89%
same,MEAN CORPUSCULAR HEMOGLOBIN,[3],24.17 pg
same,MEAN CORPUSCULAR HEMOGLOBIN CONCENTRATION,[3],39.53 G/DL
same,MEAN CORPUSCULAR VOLUME,[3],61.13 fL
same,MONOCYTE,[3],1.67%
same,NEUTROPHIL,[3],8.67%
same,NUCLEATED RED BLOOD CELLS,[3],0 /100WBC
same,PLATELET COUNT,[3],1290.33 x10E3/uL
same,ALANINE AMINOTRANSFERASE,[3],84.33 u/L
same,ALBUMIN,[3],3.8 G/DL
same,ALKALINE PHOSPHATASE,[3],386 u/L
same,ASPARTATE AMINOTRANSFERASE,[3],91 u/L
same,BLOOD UREA NITROGEN,[3],15.33 mg/dL
same,CARBON DIOXIDE,[3],30.33 mmol/L
same,CHLORIDE,[3],97.67 MEQ/L
same,CHOLESTEROL,[3],86 mg/dL
same,CREATINE PHOSPHOKINASE,[3],250 u/L
same,CREATININE,[3],0.3 mg/dL
same,GLUCOSE,[3],148.33 mg/dL
same,LACTATE DEHYDROGENASE,[3],74.67 u/L
same,LIPASE,[3],25.67 u/L
same,PHOSPHORUS,[3],8.03 mg/dL
same,POTASSIUM,[3],5.82 MEQ/L
same,SODIUM,[3],142.7 MEQ/L
same,TOTAL BILIRUBIN,[3],0.1 mg/dL
same,TOTAL PROTEIN,[3],6 G/DL
same,URIC ACID,[3],0.3 mg/dL

# Source: ChEMBL document CHEMBL3885881, “DrugMatrix”
